According to patent US9481639B2, “Substituted tetracycline compounds for treatment of inflammatory skin disorders” (Paratek Pharmaceuticals, Inc., priority 2006, dated 2016):
Converted amounts (≈) assume the structure as drawn. Read-outs that look alike come from different tables or passages of the source.

What was measured:
S. aureus RN450 [1] = experiment: Antibacterial MIC, CLSI broth microdilution; type: cell-based; details: Staphylococcus aureus, 35° C., 18-24 hours
Description: (§1) Gram (−) and gram (+) antibacterial minimum inhibitory concentration (MIC) values (μg/mL) were obtained using CLSI methodology for anti-bacterial susceptibility testing. On each day of testing, serial dilutions of compounds were prepared in microdilution plates using a Tecan robotic workstation. Mueller Hinton broth cultures of representative sensitive and resistant gram negative strains were grown or adjusted to match the turbidity of a 0.5 McFarland standard. 1:200 dilutions were made in an appropriate broth (cation supplemented Mueller Hinton broth) to allow a final inoculum of 1×10^5 cfu. Plates were incubated at 35° C. in ambient air for 18-24 hours, were read spectrophotometrically and checked manually for evidence of bacterial growth. The lowest dilution of compound that inhibited growth was recorded as the MIC. Lysed horse blood was used to supplement broth for testing S. pneumoniae. The MIC's for each compound were assessed against S. aureus, S. pneumoniae, P. acnes, E. coli and B. theta.

E. coli MG. 1655 = experiment: Antibacterial MIC, CLSI broth microdilution; type: cell-based; details: Escherichia coli, 35° C., 18-24 hours
Description: as §1

P. acnes ATCC 11827 = experiment: Antibacterial MIC, CLSI broth microdilution; type: cell-based; details: Cutibacterium acnes, ATCC11827
Description: as §1

[2] = tested on: S. pneumoniae 157E - Strep; experiment: Antibacterial MIC, CLSI broth microdilution; type: cell-based; details: Streptococcus pneumoniae, 157ESTREP; broth supplemented with lysed horse blood
Description: as §1

P. acnes ATCC 6919 = experiment: Antibacterial MIC, CLSI broth microdilution; type: cell-based; details: Cutibacterium acnes, ATCC6919
Description: as §1

E. coli ATCC 25922 = experiment: Antibacterial MIC, CLSI broth microdilution; type: cell-based; details: Escherichia coli, ATCC25922; 35° C., 18-24 hours
Description: as §1

[3] = tested on: B. thetaiotaomicron ATCC 29741; experiment: Antibacterial MIC, CLSI broth microdilution; type: cell-based
Description: as §1

[4] = tested on: carrageenan induced rat paw inflammation; experiment: Rat carrageenan-induced paw edema inflammatory model; type: in vivo; details: for 50% effective concentration (EC50), carrageenan induced paw inflammation: IP 30 minutes before carrageenan, paw volume 3 hours after
Description: The model used a sub-plantar injection of carrageenan in the rat to induce an inflammatory response. The test compound or saline (control) was administered IP 30 minutes before a subplantar injection of carrageenan (1.5 mg/0.1 mL). Paw volume was measured […] before subplantar injection and again 3 hours after the injection of carrageenan using a plethysmometer. Significant differences as determined by a Kruskal-Wallis One Way ANOVA are noted between the inflammation of the untreated controls versus treated animals […]

S. aureus RN450 [5] = experiment: In vivo anti-bacterial activity, S. aureus lethal infection model; details: Staphylococcus aureus, sc, mice
Description: Groups of five mice were injected intraperitoneally with a lethal dose of S. aureus RN450 in a medium of mucin. Mice were evaluated at 24 hours to determine survival. […] In some instances, a dose response study was performed with the compound such that a PD50 (a dose of compound that protects 50% of the animals) could be calculated.

in vitro = type: cell-based
Description: Mammalian cell cytotoxicity was assessed to evaluate potential in vivo risks associated with the tetracycline compounds of the invention. A soluble, non-toxic redox dye (“Resazurin”; Alamar Blue) was used to assess a tetracycline compound's effect on cellular metabolism. At the onset of the experiment, cultures of mammalian COS-1 or CHO cells were washed, trypsinized, and harvested. […] On the next day, serial dilutions of test drug were prepared under sterile conditions and transferred to cell plates. Plates were then incubated under the above conditions for 24 hours. Following the incubation period, the media/drug was aspirated, and 50 μL of resazurin was added. Plates were then incubated under the above conditions for 2 hours and then in the dark at room temperature for an additional 30 minutes. Fluorescence measurements were taken (excitation 535 nm, emission 590 nm) and toxic effects in treated versus control cells were compared based on the degree of fluorescence in each well.

[6] = Bacteroides thetaiotaomicron, ATCC29741; read-out: MIC B. thetaiotaomicron ATCC 29741
[7] = Bacteroides thetaiotaomicron, ATCC29741, read-out: MIC B. thetaiotaomicron ATCC 29741

| SMILES | MIC (S. aureus RN450 [1]) [µg/mL] | MIC (E. coli MG. 1655) [µg/mL] | MIC (P. acnes ATCC 11827) [µg/mL] | MIC [2] [µg/mL] | MIC (P. acnes ATCC 6919) [µg/mL] | MIC (E. coli ATCC 25922) [µg/mL] | MIC [3, 6] [µg/mL] | modulation of carrageenan induced inflammation compared with reference tetracycline ([4]; IP, various doses, A vs doxycycline (FIG. 1), P vs minocycline (FIG. 2)) | responders at 5 mg/kg (S. aureus RN450 [5]; lethal IP S. aureus RN450, single subcutaneous dose 5 mg/kg, survival at 24 hours, read-out: Percent Survival) [%] | IC50 at 24 h (in vitro; African green monkey) [µg/mL] | IC50 at 24 h (in vitro; Chinese hamster) [µg/mL] | ED50 (S. aureus RN450 [5]; lethal IP S. aureus RN450, subcutaneous, 24 hours, read-out: PD50 (dose that protects 50% of the animals)) [mg/kg] | MIC [3, 7] [µg/mL] | 50% effective concentration (EC50), carrageenan induced paw inflammation [4] |
| --- | --- | --- | --- | --- | --- | --- | --- | --- | --- | --- | --- | --- | --- | --- |
| CCO/N=C(/C)c1ccc(O)c2c1CC1CC3[C@H](N(C)C)C(O)=C(C(N)=O)C(=O)[C@@]3(O)C(O)=C1C2=O (stereo partly shown) [Compound A] | < 4 | 4 to 8 (≈ 8.01 to 16 µM) | < 4 | < 4 | < 4 | < 4 | > 8 | improved activity | 100 | < 35 | < 35 |  |  |  |
| CN(C)[C@@H]1C(O)=C(C(N)=O)C(=O)[C@@]2(O)C(O)=C3C(=O)c4cccc(-c5cnccn5)c4C[C@H]3C[C@@H]12 [Compound W, (4S,4aS,5aR,12aS)-4-Dimethylamino-3,12,12a-trihydroxy-1,11-dioxo-7-pyrazin-2-yl-1,4,4a,5,5a,6,11,12a-octahydro-naphthacene-2-carboxylic acid amide] | < 4 | > 8 | < 4 | < 4 | < 4 | > 8 | > 8 |  |  | > 75 | > 75 | 1.08 |  |  |
| C[C@H]1c2cccc(O)c2C(=O)C2=C(O)[C@]3(O)C(=O)C(C(N)=O)=C(O)[C@@H](N(C)C)[C@@H]3[C@@H](O)[C@@H]21 [Doxycycline, reference compound] |  |  |  |  |  |  |  |  |  |  |  |  | 4 to 8 (≈ 9 to 18 µM) | approximately 50 mg/kg |
| CN(C)c1ccc(O)c2c1C[C@H]1C[C@H]3[C@H](N(C)C)C(O)=C(C(N)=O)C(=O)[C@@]3(O)C(O)=C1C2=O [Minocycline, reference compound] |  |  |  |  |  |  |  |  |  |  |  |  | 4 to 8 (≈ 8.74 to 17.5 µM) | approximately 50 mg/kg |
